Entries after “also recorded” stand apart in the source; their conditions may differ. Read-outs that look alike come from different tables or passages of the source.

The term Kd denotes the free concentration of one partner at which half of the binding sites on the other are occupied at equilibrium, for simple one-to-one binding.

Experiment [1] has as its target T1, hVDAC1 (Homo sapiens, UniProt P21796). Description: MST binding check. To be noted: 100 nM hVDAC1, highest soluble ligand concentration.
Experiment [2] deals with T1, hVDAC1. Briefly: NanoDSF thermal shift. Format: binding. To be noted: hVDAC1 in LDAO; compared to hVDAC1 alone at 0% or 5% DMSO. (DSF heats the sample and reads unfolding from a dye or from intrinsic fluorescence.)
The subject of a further experiment is VDAC1. The following applies: PLB, cited from earlier work.
For experiment [3], the target named is T1, hVDAC1. Description: MST dose-response experiment. Format: binding.
For a further experiment, the target named is rVDAC1. To be noted: cited from earlier work.
In experiment [4] the target is T1, hVDAC1. To be noted: read-out: Published Kd; cited from earlier work.
[5] abbreviates: MST dose-response, 100 nM hVDAC1, 16 concentrations.

T1 sequence (P21796 whole entry): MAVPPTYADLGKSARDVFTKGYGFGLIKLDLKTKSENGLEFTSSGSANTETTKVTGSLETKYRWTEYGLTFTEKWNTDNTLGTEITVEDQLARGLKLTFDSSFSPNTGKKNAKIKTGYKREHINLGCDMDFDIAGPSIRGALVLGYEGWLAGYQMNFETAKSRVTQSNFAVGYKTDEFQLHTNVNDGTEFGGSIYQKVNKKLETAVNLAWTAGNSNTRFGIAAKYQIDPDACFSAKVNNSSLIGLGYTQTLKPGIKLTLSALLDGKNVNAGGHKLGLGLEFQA

With `CC(=O)Oc1ccccc1C(=O)O` [Aspirin], the figures for the “MST Binding Check” value at hVDAC1 [1] and on hVDAC1 [1] (listed as aspirin) were “Positive” and “validated by binding check”, respectively.
Regarding `C=C(C)[C@@H]1CCC(C)=C[C@H]1c1c(O)cc(CCCCC)cc1O` [Cannabidiol], at hVDAC1 [1], the “MST Binding Check” value is given as “Positive”. Further, the “Tm shift in NanoDSF (direction / significance, in words)” value on hVDAC1 [2] was “increase the Tm; also recorded: positive”. Moreover, the “Effect(s) on activity” value with VDAC1 (MST) is given as “Reduces conductance Increases mitochondrial Ca^2+”. For the same compound, the Kd was 6 ± 2 µM at hVDAC1 [3]; < 10 µM at hVDAC1 [3] (setting [5]); 11 µM at rVDAC1 (read-out: Published Kd, listed as cannabidiol); 11.2 µM at rVDAC1 (read-out: Published Kd).
For `O.Oc1cc(O)c2c(c1)O[C@H](c1ccc(O)c(O)c1)[C@@H](O)C2` [Catechin], the “Tm shift in NanoDSF (direction / significance, in words)” value on hVDAC1 [2] was “increase the Tm; also recorded: significant Tm shift”.
Turning to `COc1cc(/C=C/C(=O)CC(=O)/C=C/c2ccc(O)c(OC)c2)ccc1O` [Curcumin], the “MST Binding Check” value at hVDAC1 [1] is given as “Positive”. Moreover, on hVDAC1 [2], the “Tm shift in NanoDSF (direction / significance, in words)” value is on record as “negative Tm shift”. Further, in the experiment on VDAC1, the “Effect(s) on activity” value is on record as “Reduces conductance by promoting closed state(s)”. The equilibrium dissociation constant (Kd) was 6 ± 1 µM at hVDAC1 [3] and < 10 µM at hVDAC1 [3] (setting [5]).
Take `C(=NC1CCCCC1)=NC1CCCCC1` [DCCD]: the “MST Binding Check” value on hVDAC1 [1] is recorded as “Positive”. The “Tm shift in NanoDSF (direction / significance, in words)” value at hVDAC1 [2] is “increase the Tm”. Moreover, the “Effect(s) on activity” value in the experiment with VDAC1 (NMR, [14C] DCCD-labelled VDAC1) is “Reduces conductance Inhibits HK-VDAC1 binding”.
Turning to `O=C(O)c1ccccc1Nc1ccccc1` [DPC], on hVDAC1 [1], the “MST Binding Check” value was “validated by binding check; also recorded: Positive”. Besides, the “Tm shift in NanoDSF (direction / significance, in words)” value at hVDAC1 [2] is reported as “negative Tm shift”. Further, the “Effect(s) on activity” value in the experiment with VDAC1 (MST) was “Reduces conductance Prevents oligomerization”. In addition, the Kd at rVDAC1 (read-out: Published Kd) is 150 µM.
Regarding `Cc1cc(O)c2c(c1)C(=O)c1cc(O)cc(O)c1C2=O` [Emodin], the “MST Binding Check” value is on record as “Positive” on hVDAC1 [1] and “binding was shown” at hVDAC1 [1] (listed as emodin). Also, the “Tm shift in NanoDSF (direction / significance, in words)” value at hVDAC1 [2] was “not been confirmed as VDAC1 ligands; also recorded: no significant changes in Tm”. Binding on hVDAC1 [3] was characterised by a dissociation constant (Kd) of 10 ± 5 µM.
With `CNCCC(Oc1ccc(C(F)(F)F)cc1)c1ccccc1` (centres unmarked) [Fluoxetine], the “Effect(s) on activity” value in the experiment on VDAC1 is on record as “Reduces conductance Prevents Cyto C release”.
With `CCC(C)n1ncn(-c2ccc(N3CCN(c4ccc(OCC5COC(Cn6cncn6)(c6ccc(Cl)cc6Cl)O5)cc4)CC3)cc2)c1=O` (centres unmarked) [Itraconazole], the “MST Binding Check” value is reported as “Positive” at hVDAC1 [1] and “binding was shown” at hVDAC1 [1] (listed as itraconazole). Also, the Kd on hVDAC1 [3] is 5 ± 2 µM; at rVDAC1 (read-out: Published Kd), 120 µM.
With `CN(C)C(=N)N=C(N)N` [Metformin], the “MST Binding Check” value is on record as “Positive” at hVDAC1 [1] and “validated by binding check” at hVDAC1 [1] (listed as metformin). The “Tm shift in NanoDSF (direction / significance, in words)” value on hVDAC1 [2] was “not been confirmed as VDAC1 ligands”. For the same compound, in the experiment on VDAC1 (MST), the “Effect(s) on activity” value is recorded as “Reduces conductance No binding observed by MST”.
For `NC(=O)C1=CN([C@@H]2O[C@H](COP(=O)(O)OP(=O)(O)OC[C@H]3O[C@@H](n4cnc5c(N)ncnc54)[C@H](O)[C@@H]3O)[C@@H](O)[C@H]2O)C=CC1` [NADH], on hVDAC1 [1], the “MST Binding Check” value is listed as “validated by binding check; also recorded: Positive”. At hVDAC1 [4], the Kd was 9000 µM. On hVDAC1 [2], the “Tm shift in NanoDSF (direction / significance, in words)” value is “not been confirmed as VDAC1 ligands”. In addition, in the experiment with VDAC1 (NMR), the “Effect(s) on activity” value was “Affects gating without reducing the conductance Sterically closes the channel”.
Consider `CC(C)CCC[C@@H](C)[C@H]1CC[C@H]2[C@@H]3CCC4=CC(=NO)CC[C@]4(C)[C@H]3CC[C@]12C` [Olesoxime], for which the “MST Binding Check” value is “Positive” on hVDAC1 [1] and “validated by binding check” on hVDAC1 [1] (listed as olesoxime). Also, at hVDAC1 [2], the “Tm shift in NanoDSF (direction / significance, in words)” value is given as “negative Tm shift”. Besides, the “Effect(s) on activity” value with VDAC1 is listed as “Reduces conductance”.
On to `CC(C)c1cccc(C(C)C)c1O` [Propofol], for which, at hVDAC1 [1], the “MST Binding Check” value is listed as “Positive”. Also, the “Tm shift in NanoDSF (direction / significance, in words)” value at hVDAC1 [2] is on record as “increase the Tm”. Moreover, the “Effect(s) on activity” value in the experiment on VDAC1 was “Promotes closure when a negative voltage is applied No effects on open state conductance”. Moreover, at hVDAC1 [3], the Kd is > 650 µM.
Regarding `C=C[C@H]1C[N@@]2CC[C@H]1C[C@@H]2[C@@H](O)c1ccnc2ccc(OC)cc12` [Quinidine], the “MST Binding Check” value on hVDAC1 [1] is given as “Positive”; on hVDAC1 [1] (listed as quinidine), “validated by binding check”. In addition, at hVDAC1 [2], the “Tm shift in NanoDSF (direction / significance, in words)” value was “negative Tm shift”.

Source of the values: PMC9858421 (Journal of Enzyme Inhibition and Medicinal Chemistry, 2023).
